Assay results as given in patent publication US11845773B2, “Trehalose analogues” (Central Michigan University, priority 2016, dated 2023).

Experiments:
Msmeg [1] = experiment: Metabolic labeling of Msmeg with TMM reporters 1-6 (CuAAC, SPAAC, tetrazine ligation or one-step); details: 4 h; for concentration of labeling saturation: Msmeg and Cglut, range up to 250 μM, flow cytometry (FIG. 62)
Ag85 = experiment: Effect of ebselen on AlkTMM labeling in Msmeg (Ag85 dependency); type: cell-based, Mycobacterium smegmatis; details: ebselen 50 μg/mL 8 h; for decrease of labeling upon treatment of Msmeg with ebselen: then reporter 4 h (O-AlkTMM 50 μM; N-AlkTMM 100 μM)
Method: Effect of ebselen on AlkTMM labeling in Msmeg. Msmeg was cultured in 7H9 liquid medium in 96-well plates in the presence of ebselen (50 μg/mL) for 8 hours, after which the chemical reporter (O-AlkTMM, 50 μM; N-AlkTMM, 100 μM; 6-TreAz, 25 μM) was added and the cells were incubated for another 4 hours. Cells were subjected to CuAAC and analyzed by flow cytometry as described above.

[2] = tested on: Msmeg PG-AGM and extractable lipids fractions; experiment: Cellular fractionation and fluorescence analysis of labeled Msmeg; type: cell-based, Mycobacterium smegmatis; details: for distribution of fluorescence between PG-AGM and extractable lipids fractions: Msmeg 4 h, O-AlkTMM 50 μM, N-AlkTMM 250 μm, 6-TreAz 25 μM, CHCl3/CH3OH extraction
Method: Cellular fractionation and analysis of labeled Msmeg. 10 mL Msmeg cultures were grown in 7H9 liquid medium in the presence of O-AlkTMM (50 μM), N-AlkTMM (250 μm) or left untreated in 15 mL conical tubes. A higher concentration of N-AlkTMM was used to maximize labeling efficiency. In parallel, cultures were grown in the presence of 6-TreAz (25 μM) or left […] untreated. Cells were incubated with shaking for 4 h at 37° C. until reaching late-log phase, then pelleted by centrifugation and washed with PBSB three times as described above. For O- and N-AlkTMM-labeled cells and their untreated control, the above-described click chemistry procedure was carried out with Az488 at a reaction volume of 500 μL. For 6-TreAz-labeled cells and their untreated control, the above-described click chemistry procedure was carried out with Alk488 at a reaction volume of 500 μL. After the click reactions, cells were pelleted by centrifugation and washed with PBSB three times as described above. Aliquots were removed and resuspended in PBS 1× for measurement of OD600 (for normalization of fluorescence values) and analysis by flow cytometry as shown in FIG. 13. The remainder of the cells were resuspended in 1 mL HPLC grade CH3OH and transferred to a glass screw-cap culture tube containing 2 mL CHCl3 and equipped with a stir bar. The CHCl3/CH3OH (2:1) cell suspension was stirred overnight to accomplish separation of the soluble extractable lipids from the insoluble PG-AGM material. The insoluble material was pelleted by centrifugation (3,600 rpm, 10 minutes, room temperature) and washed two times with CHCl3/CH3OH (2:1). The CHCl3/CH3OH (2:1) supernatants containing soluble extractable lipids were combined in a 20 mL glass scintillation vial and dried by rotary evaporation. Both fractions were subjected to TLC analysis as described in FIG. 12 to confirm separation of the extractable lipids from the PG-AGM material. Both fractions were then resuspended in 1 mL 5% aqueous tetrabutylammonium hydroxide (TBAH) in glass screw-cap culture tubes, sealed and then stirred overnight at 100° C. to saponify and solubilize the samples. Next, the samples were cooled to room temperature and 200 μL aliquots were transferred to a black flat-bottom 96-well plate.

Bacillus subtilis = experiment: AlkTMM labeling specificity, B. subtilis; type: cell-based; details: species specificity, flow cytometry and microscopy
Escherichia coli = experiment: AlkTMM labeling specificity, E. coli; type: cell-based; details: species specificity, flow cytometry and microscopy
Msmeg [3] = experiment: Competition of AlkTMM labeling in Msmeg with unlabeled probes; type: cell-based, Mycobacterium smegmatis; details: competitor 250, 1000, 5000 μM, 4 h; O-AlkTMM 50 μM with O—C7TMM, N-AlkTMM 100 μM with N—C7TMM
Method: Competition of AlkTMM labeling in Msmeg. For O-AlkTMM competition experiments, Msmeg was cultured in 7H9 liquid medium in 96-well plates in the presence of O-AlkTMM (50 μM) and its unlabeled version, O—C7TMM, at concentrations of 250, 1000, and 5000 μM (or without competitor) for 4 h. For N-AlkTMM competition experiments, Msmeg was cultured in 7H9 liquid medium in the presence of N-AlkTMM (100 μM) and its unlabeled version, […], at concentrations of 250, 1000, and 5000 μM (or without competitor) for 4 h. Cells were subjected to CuAAC and analyzed by flow cytometry as described above.

Msmeg [4] = experiment: Growth of Msmeg during treatment with probes; type: cell-based, Mycobacterium smegmatis; details: up to 250 μM
Method: Plates were incubated at 37° C. […] Tubes were incubated at 37° C.

[5] = tested on: SugABC-LpqY trehalose transporter; experiment: Labeling in Msmeg wild type versus Msmeg ΔsugC; type: cell-based, Mycobacterium smegmatis; details: Msmeg wild type vs ΔsugC
[6] = tested on: M. smegmatis mc2155 (Msmeg); experiment: Metabolic labeling of Msmeg with AlkTMM probes, CuAAC with Az488, flow cytometry / microscopy; type: cell-based, Mycobacterium smegmatis; design: concentration at which labeling was saturable: unit not given here; details: for labeling after only a few seconds of culture time / labeling features in time-course fluorescence microscopy: Msmeg; for change in labeling between log- and stationary-phase Msmeg: growth phase dependence; for labeling of Msmeg: species specificity, flow cytometry and microscopy
C. glutamicum = experiment: AlkTMM labeling specificity, C. glutamicum; type: cell-based, Corynebacterium glutamicum; details: species specificity, flow cytometry and microscopy
[7] = Water solubility of reporters
Cglut = experiment: Metabolic labeling of Cglut with TMM reporters 4-6; details: flow cytometry

6-O-(10-undecynoyl)-α,α-D-trehalose [O-AlkTMM-C11]
dependence of labeling on acyl chain length (Msmeg [1]; Msmeg, 50 μM reporter, azido-488 CuAAC, flow cytometry): small increase

[N-]=[N+]=NC[C@H]1O[C@H](O[C@H]2O[C@H](CO)[C@@H](O)[C@H](O)[C@H]2O)[C@H](O)[C@@H](O)[C@@H]1O [6-TreAz, reference compound]
effect of ebselen treatment on Msmeg labeling (Ag85; then 6-TreAz 25 μM 4 h): did not reduce | distribution of fluorescence between PG-AGM and extractable lipids fractions [2]: signal exclusively in the extractable lipids fraction

C#CCCCCC(=O)NCC1O[C@H](O[C@H]2OC(CO)[C@@H](O)C(O)[C@H]2O)C(O)[C@@H](O)[C@@H]1O (stereo partly drawn) [N-AlkTMM, N-(6-heptynoyl)-6-amino-6-deoxy-α,α-D-trehalose]
labeling of B. subtilis (Bacillus subtilis): no labeling above background | labeling of E. coli (Escherichia coli): no labeling above background | competition of labeling signal by unlabeled version of the probe (Msmeg [3]): Dose-dependent competition of signal | decrease of labeling upon treatment of Msmeg with ebselen (Ag85): ~85% | growth impairment of Msmeg (Msmeg [4]): no growth impairment | dependence of incorporation on trehalose transporter SugABC-LpqY [5]: not dependent on the trehalose transporter SugABC-LpqY | labeling after only a few seconds of culture time [6]: significant labeling could be detected | labeling features in time-course fluorescence microscopy [6]: intensely fluorescent septa in dividing cells, highly polar labeling for short pulses, and diffuse surface labeling for longer pulses | S/N reached under the conditions tested ([6]; Msmeg 14 h, 1-250 μm probe, Az488 CuAAC, flow cytometry): > 150 | signal lower than O-AlkTMM at the same concentrations ([6]; Msmeg 14 h, flow cytometry): approximately 10 fold | change in labeling between log- and stationary-phase Msmeg [6]: significant decrease | labeling of Msmeg [6]: strong labeling of the cell surface | distribution of fluorescence between PG-AGM and extractable lipids fractions [2]: signal only in the extractable lipids fraction | labeling of C. glutamicum (C. glutamicum): strong labeling of the cell surface

C#CCCCCC(=O)OCC1O[C@H](O[C@H]2OC(CO)[C@@H](O)C(O)[C@H]2O)C(O)[C@@H](O)[C@@H]1O (stereo partly drawn) [O-AlkTMM, 6-O-(6-heptynoyl)-α,α-D-trehalose]
labeling of B. subtilis (Bacillus subtilis): no labeling above background | labeling of E. coli (Escherichia coli): no labeling above background | water solubility [7]: conveniently water-soluble | competition of labeling signal by unlabeled version of the probe (Msmeg [3]): Dose-dependent competition of signal | decrease of labeling upon treatment of Msmeg with ebselen (Ag85): approximately 70% | growth impairment of Msmeg (Msmeg [4]): no growth impairment | dependence of incorporation on trehalose transporter SugABC-LpqY [5]: not dependent on the trehalose transporter SugABC-LpqY | labeling after only a few seconds of culture time [6]: significant labeling could be detected | labeling features in time-course fluorescence microscopy [6]: intensely fluorescent septa in dividing cells, highly polar labeling for short pulses, and diffuse surface labeling for longer pulses | concentration at which labeling was saturable ([6]; Msmeg 14 h, Az488 CuAAC, flow cytometry): 50 | signal-to-noise ratio (S/N) of labeling ([6]; Msmeg cultured 14 h, Az488 CuAAC, flow cytometry): > 20 | change in labeling between log- and stationary-phase Msmeg [6]: significant decrease | labeling of Msmeg [6]: strong labeling of the cell surface | distribution of fluorescence between PG-AGM and extractable lipids fractions [2]: nearly all of the fluorescence from O-AlkTMM treated Msmeg was present in the PG-AGM fraction | fraction of probe reacting with TMM to form alkyne-labeled TDM ([2]; estimated from extractable lipids fluorescence, FIG. 7): ≤ 10% | labeling of C. glutamicum (C. glutamicum): strong labeling of the cell surface

C#CCCC(=O)OCC1O[C@H](O[C@H]2OC(CO)[C@@H](O)C(O)C2O)C(O)C(O)[C@@H]1O (stereo partly drawn) [O-AlkTMM-C5, 6-O-(4-pentynoyl)-α,α-D-trehalose]
water solubility [7]: conveniently water-soluble

[N-]=[N+]=NCCCCCCCCCC(=O)OCC1O[C@H](O[C@H]2OC(CO)[C@@H](O)C(O)C2O)C(O)C(O)[C@@H]1O (stereo partly drawn) [O-AzTMM-C10, 6-O-(10-azidodecanoyl)-α,α-D-trehalose]
concentration of labeling saturation (Msmeg [1]): approximately 25 μM

O=C(CCCCCCCCCNC(=S)Nc1ccc2c(c1)C(=O)OC21c2ccc(O)cc2Oc2cc(O)ccc21)OC[C@H]1O[C@H](O[C@H]2O[C@H](CO)[C@@H](O)[C@H](O)[C@H]2O)[C@H](O)[C@@H](O)[C@@H]1O [O-FITC-TMM, 6-O-(10-[(fluorescein-5-yl)thioureido]decanoyl)-α,α-D-trehalose]
incorporation into Cglut relative to Msmeg (Cglut): much more efficiently than in Msmeg | concentration of labeling saturation (Msmeg [1]): ≥ 100 µM

O=C(CCCCCCCCCNC(=O)OC1CC/C=C/CCC1)OC[C@H]1O[C@H](O[C@H]2O[C@H](CO)[C@@H](O)[C@H](O)[C@H]2O)[C@H](O)[C@@H](O)[C@@H]1O (stereo partly drawn) [O-TCO-TMM, 6-O-(10-{N—[(E)-cylcooct-4-en1yloxy]carbonyl}aminodecanoyl)-α,α-D-trehalose]
incorporation into Cglut relative to Msmeg (Cglut): much more efficiently than in Msmeg | concentration of labeling saturation (Msmeg [1]): approximately 25 μM
